Results published in patent US6177415A, “Bacteriohopanetetrol and related compounds useful for modulation of lipoxygenase activity and anti-inflammatory applications” (The United States of America as represented by the …, priority 1997, dated 2001).
Like-named read-outs stand apart in the source and are kept apart here.

Tests used:
[1] = molecular target: T1, Soybean 15-LO (Glycine max, UniProt P08170); test: Assay of soybean 15-lipoxygenase (oxygen consumption, Clark oxygen electrode); type: biochemical
T1 construct: purchased Sigma Chemical Co. (St. Louis, Mo.) Type V
T1 sequence (P08170 1-839): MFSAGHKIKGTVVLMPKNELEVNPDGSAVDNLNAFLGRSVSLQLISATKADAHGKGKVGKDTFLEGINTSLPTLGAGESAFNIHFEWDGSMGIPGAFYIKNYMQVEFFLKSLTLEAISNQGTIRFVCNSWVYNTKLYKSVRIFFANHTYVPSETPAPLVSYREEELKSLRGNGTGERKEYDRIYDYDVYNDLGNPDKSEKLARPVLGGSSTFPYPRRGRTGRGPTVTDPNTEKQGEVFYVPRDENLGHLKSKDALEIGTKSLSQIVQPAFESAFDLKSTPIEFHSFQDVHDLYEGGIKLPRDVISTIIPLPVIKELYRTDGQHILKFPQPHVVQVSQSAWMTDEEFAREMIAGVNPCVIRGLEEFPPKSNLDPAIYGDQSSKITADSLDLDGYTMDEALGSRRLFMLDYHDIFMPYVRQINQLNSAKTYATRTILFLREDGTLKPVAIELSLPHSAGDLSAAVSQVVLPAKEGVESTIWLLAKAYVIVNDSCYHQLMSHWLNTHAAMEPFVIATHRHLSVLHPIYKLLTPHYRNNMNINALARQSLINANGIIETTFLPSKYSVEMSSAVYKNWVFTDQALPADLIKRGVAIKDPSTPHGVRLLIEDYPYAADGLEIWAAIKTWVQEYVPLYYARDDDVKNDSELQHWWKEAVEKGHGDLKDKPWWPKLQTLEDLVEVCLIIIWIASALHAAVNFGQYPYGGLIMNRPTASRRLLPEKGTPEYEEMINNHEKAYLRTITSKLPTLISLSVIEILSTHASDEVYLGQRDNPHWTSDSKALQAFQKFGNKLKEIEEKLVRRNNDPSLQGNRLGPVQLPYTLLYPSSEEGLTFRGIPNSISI
Experimental: Initial screening was carried out on three hopanoids isolated from Z. mobilis (FIGS. 1,b,c,d). These compounds were purified as described and screened for their ability to inhibit three enzymes known for their activity in the metabolism of arachidonic acid. These enzymes, soybean 15-lipoxygenase (15-LO), human 5-lipoxygenase (5-LO) and prostaglandin H synthase (Table I), are known to be inhibited by most non-steroidal anti-inflammatory drugs (Parthasarathy and Rankin. 1992. Prog. Lipid. Res. vol. 31, p. 127). Soybean 15-LO was inhibited by one of the hopanoids, tetrahydroxybacteriohopane (THBH), with an IC50 of about 10 μM. […] The two other natural hopanoid compounds, THBH-GA and THBH-Et, were also evaluated for their effect on soybean 15-LO.
Soybean 15 LO (Type V) was obtained from Sigma Chemical Co. (St. Louis, Mo.). The reaction mixture (1.8 ml) consisted of 0.1 M borate buffer, pH 9.0, 5 μl (0.5 μg, 315 units) of soybean 15-LO dissolved in borate buffer, and 25 μl of inhibitor dissolved in ethanol, and was preincubated for 3 min. The reaction was started by injecting 100 μl of substrate mixture (prepared fresh daily and consisting of 1.0 mg arachidonic acid sonicated in 2.3 ml 0.1 M borate buffer, pH 9.0) yielding a final concentration of 50.9 μM arachidonic acid in the reaction vessel. The rate of disappearance of dissolved oxygen was monitored with a Clark Oxygen Electrode (Yellow Springs Instruments, Yellow Springs, Ohio) with the temperature controlled at 25° C., according to the method described by Breton et al. (1993. Prostaalandins, Leucotrienes, and Fatty Acids. vol. 49, p. 929, herein incorporated by reference). The O2 concentration in an air-saturated aqueous solution at 25° C., was calculated to be 0.24 mM. The assay system was checked by measuring the inhibition of phenidone, a known inhibitor of soybean 15-LO. Each potential inhibitor was tested at each of the listed concentrations at least three times and enzyme activities presented are the means ± standard deviations, reported as relative activities (calculated assuming that the activity in the minus-inhibitor control=100). The actual activities of the controls (in units of μM O2 consumed/min/mg protein) are also presented as a footnote to Table I.

[2] = molecular target: T2, Human 5-LO (Homo sapiens, UniProt P09917); test: Assay of recombinant human 5-lipoxygenase (oxygen consumption); type: biochemical
T2 construct: purchased Oxford Biomedical Research Co., Oxford, Mich
T2 sequence (P09917 1-674): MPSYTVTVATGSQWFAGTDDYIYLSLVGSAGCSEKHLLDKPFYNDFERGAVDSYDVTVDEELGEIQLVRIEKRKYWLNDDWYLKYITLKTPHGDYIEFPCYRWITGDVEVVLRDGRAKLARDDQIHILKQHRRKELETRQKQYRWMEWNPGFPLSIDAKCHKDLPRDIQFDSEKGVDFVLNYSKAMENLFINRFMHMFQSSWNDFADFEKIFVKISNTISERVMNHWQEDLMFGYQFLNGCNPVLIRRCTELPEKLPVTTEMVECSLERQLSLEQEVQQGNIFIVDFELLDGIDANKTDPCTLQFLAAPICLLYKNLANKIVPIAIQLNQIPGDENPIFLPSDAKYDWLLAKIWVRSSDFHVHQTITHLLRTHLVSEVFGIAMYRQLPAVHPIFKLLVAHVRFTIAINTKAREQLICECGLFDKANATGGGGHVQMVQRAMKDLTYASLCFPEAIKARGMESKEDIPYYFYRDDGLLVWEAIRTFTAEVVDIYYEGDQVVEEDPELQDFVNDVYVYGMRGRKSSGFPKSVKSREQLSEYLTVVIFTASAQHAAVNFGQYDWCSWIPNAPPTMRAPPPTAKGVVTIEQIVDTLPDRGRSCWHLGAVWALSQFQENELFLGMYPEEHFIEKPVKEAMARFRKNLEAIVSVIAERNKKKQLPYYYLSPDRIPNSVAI
Experimental: The reaction mixture (1.80 ml) consisted of 0.25 mM CaCl2, 0.13 mM ATP, 7 μl of phosphatidylcholine (12 μg/2 ml ethanol), 25 μl of inhibitor dissolved in ethanol, and Tris-HCl buffer, 50 mM, pH 7.4, and preincubated for 3 min. The reaction was started by injecting 5 μl of arachidonic acid (3.8 mg/5 ml ethanol) yielding a final arachidonic acid concentration of 4.5 μM in the reaction mixture. The rate of disappearance of dissolved oxygen was monitored with an oxygen electrode at 37° C., as described in Example 2. The O2 concentration in an air-saturated aqueous solution at 37° C. was calculated to be 0.185 mM.

[3] = system: Arachidonic acid-induced inflammation (mouse ear); test: Topical anti-inflammatory test against arachidonic acid-induced inflammation (mouse ear swelling); type: in vivo, mouse (ICR, male); conditions: for % Inhibition of swelling: 1 hr A.A.; for % Inhibition of swelling / Ear Thickness Measurement, Left Ear (No A.A.) / Ear Thickness Measurement, Right Ear (1 hr. A.A.) / Swelling (R - L): n = 5/group; for Ear Thickness Measurement, Left Ear (No A.A.) / Ear Thickness Measurement, Right Ear (1 hr. A.A.) / Swelling (R - L): mean ± SEM
Experimental: The anti-inflammatory studies were carried out utilizing a topical model with arachidonic acid as the inflammation-inducing compound. 15-LO initiates the metabolic pathway leading to the formation of the lipoxins by converting arachidonic acid to […] (15-HPETE). Lipoxins may share some of the bioactivity associated with leukotrienes, the end-product associated with the 5-LO arachidonic acid metabolic pathway. A solution of arachidonic acid was applied to the surface of a mouse ear with the test substance (THBH) […]. Ear swelling was measured after an additional 60 minutes as an index of inflammation. For all test procedures, % inhibition was calculated according to the formula
where Ic is the increase in ear thickness (mm) in control mice and It is the increase in ear thickness in treated mice (see Example 5).
Arachidonic acid (2 mg in 20 μl acetone:pyridine:water) in a ratio of 7:2:1) was applied topically to the anterior and posterior surfaces of the right ear of mice 30 min following similar application of hopanoid or control (20 μl). Swelling of the ear was then measured by a Dyer model micrometer gauge after 60 min as an index of inflammation. For all test procedures, % inhibition was calculated according to formula (1). Five mice/dose level of test substance were used with negative and positive control groups run concurrently. The positive control was indomethacin.

[4] = molecular target: T3, Prostaglandin H Synthase (Ovis aries, UniProt P05979); test: Prostaglandin H synthase (cyclooxygenase) assay (oxygen consumption); type: biochemical
T3 construct: purchased Oxford Biomedical Research Co., Oxford, Mich
T3 sequence (P05979 25-600): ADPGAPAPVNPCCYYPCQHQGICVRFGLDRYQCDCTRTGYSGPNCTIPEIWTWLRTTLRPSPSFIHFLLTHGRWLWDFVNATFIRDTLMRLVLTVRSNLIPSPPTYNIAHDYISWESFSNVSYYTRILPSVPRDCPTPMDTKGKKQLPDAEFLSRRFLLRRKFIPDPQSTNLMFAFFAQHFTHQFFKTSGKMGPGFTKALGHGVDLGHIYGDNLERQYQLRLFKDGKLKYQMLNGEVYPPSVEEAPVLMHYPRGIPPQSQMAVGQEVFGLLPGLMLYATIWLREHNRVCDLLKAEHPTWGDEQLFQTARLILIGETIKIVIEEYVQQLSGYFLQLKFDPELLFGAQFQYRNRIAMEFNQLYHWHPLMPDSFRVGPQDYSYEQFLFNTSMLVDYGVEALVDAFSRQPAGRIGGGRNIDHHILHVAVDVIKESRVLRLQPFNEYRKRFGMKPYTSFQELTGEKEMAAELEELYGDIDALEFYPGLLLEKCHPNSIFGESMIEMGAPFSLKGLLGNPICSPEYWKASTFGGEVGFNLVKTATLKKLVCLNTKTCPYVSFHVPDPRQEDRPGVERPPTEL
Experimental: Prostaglandin H synthase was obtained from Oxford Biomedical Research Co., Oxford, Mich. The reaction mixture (1.80 ml) consisted of 0.5 mM phenol, 1 μM hematin, enzyme (3.75 μg in 5 μl), 25 μl of inhibitor dissolved in ethanol, and potassium phosphate buffer (0.1 M, pH 7.8), and was preincubated for 3 min. The reaction was started by injecting 15 μl of arachidonic acid dissolved in ethanol, yielding a final concentration of 100 μM arachidonic acid in the reaction vessel. The disappearance of dissolved oxygen was monitored as described in Example 2. The assay system was checked by measuring the inhibition in indomethacin, a known inhibitor of prostaglandin H synthase.

[5] = 25 μM, control = 100, read-out: Enzyme Activity (Relative ± S.D.)
[6] = control = 100, read-out: Enzyme Activity (Relative ± S.D.)
[7] = read-out: Enzyme Activity (Relative ± S.D.)
[8] = 50 μM, control = 100, read-out: Enzyme Activity (Relative ± S.D.)

## O=C1CCN(c2ccccc2)N1 [Phenidone, phenidone, reference compound]
[1]; [5]
  remaining activity at 25 µM: 34 ± 4%
[2]; [6]
  remaining activity at 25 µM: 55 ± 2%

## CC(=O)OCC(OC(C)=O)C(OC(C)=O)C(CCC(C)C1CCC2(C)C1CCC1(C)C2CCC2C3(C)CCCC(C)(C)C3CCC21C)OC(C)=O (stereo not shown) [THBH-Acet]
[1]
  inhibition or stimulation of soybean 15-LO (in words): destroyed its ability to inhibit this 15-LO
[1]; [7]
  remaining activity at 25 µM: 89 ± 11%
  remaining activity at 50 µM: 114 ± 17%

## C[C@H](CC[C@@H](O)[C@@H](O)[C@@H](O)CO)[C@H]1CC[C@]2(C)[C@H]3CC[C@@H]4[C@@]5(C)CCCC(C)(C)[C@@H]5CC[C@@]4(C)[C@]3(C)CC[C@@H]12 [THBH, tetrahydroxybacteriohopane]
[3]; 10 mg/ear
  % Inhibition of swelling: 41%
  Ear Thickness Measurement, Left Ear (No A.A.): 22.0 ± 0.7 × 0.01 mm
  Ear Thickness Measurement, Right Ear (1 hr. A.A.): 31.6 ± 1.5 × 0.01 mm
  Swelling (R - L): 9.6 ± 1.1 × 0.01 mm
[3]; mouse ear
  effect on arachidonic acid-caused swelling (in words): significantly affects swelling caused by the application of arachidonic acid
[4]; [5]
  remaining activity at 25 µM: 102 ± 3%
[4]; [8]
  remaining activity at 50 µM: 103 ± 2%
[4]; 25 or 50 μM
  inhibition of prostaglandin H synthase (in words): not significantly inhibited
[1]
  IC50: ~10 µM
  selectivity for 15-LO over 5-LO and prostaglandin H synthase (in words): selectively inhibits 15-LO without inhibiting either 5-LO or prostaglandin H synthase
[1]; [7]
  remaining activity at 6.75 µM: 68 ± 5%
  remaining activity at 12.5 µM: 48 ± 9%
  remaining activity at 25 µM: 15 ± 6%
  remaining activity at 50 µM: 4 ± 3%
  remaining activity at 100 µM: 11 ± 2%
[2]; [6]
  remaining activity at 25 µM: 98 ± 2%
[2]; [8]
  remaining activity at 50 µM: 97 ± 1%
[2]; 25 or 50 μM
  inhibition of human 5-LO (in words): not significantly inhibited

## COc1ccc2c(c1)c(CC(=O)O)c(C)n2C(=O)c1ccc(Cl)cc1 [Indomethacin, indomethacin, reference compound]
[3]; 3 mg/ear
  % Inhibition of swelling: 56%
  Ear Thickness Measurement, Left Ear (No A.A.): 22.2 ± 0.5 × 0.01 mm
  Ear Thickness Measurement, Right Ear (1 hr. A.A.): 29.4 ± 1.5 × 0.01 mm
  Swelling (R - L): 7.2 ± 1.5 × 0.01 mm
[4]; 2.4 μM, control = 100, read-out: Enzyme Activity (Relative ± S.D.)
  remaining activity at 2.4 µM: 7 ± 2%

## CC(CCC(O)C(O)C(O)COC1C(N)C(O)C(O)C1(O)CO)C1CCC2(C)C1CCC1(C)C2CCC2C3(C)CCCC(C)(C)C3CCC21C (stereo not shown) [THBH-Et, tetrahydroxybacteriohopane ether]
[1]
  inhibition or stimulation of soybean 15-LO (in words): stimulated enzyme activity
[1]; [7]
  remaining activity at 25 µM: 151 ± 10%
  remaining activity at 50 µM: 250 ± 38%

## CC(CCC(O)C(O)C(O)COC1OC(CO)C(O)C(O)C1N)C1CCC2(C)C1CCC1(C)C2CCC2C3(C)CCCC(C)(C)C3CCC21C (stereo not shown) [THBH-GA, tetrahydroxybacteriohopane glucosamine]
[1]
  inhibition or stimulation of soybean 15-LO (in words): stimulated enzyme activity
[1]; [7]
  remaining activity at 25 µM: 172 ± 24%
  remaining activity at 50 µM: 188 ± 14%
